Each structure is given as a SMILES string. Values joined by “and” are separate entries in the source; they are usually repeats but may differ in a detail not shown here. Identical values can stand only once. Like-named read-outs stand apart in the source and are kept apart here.

The test deals with T1, GPR139 (Homo sapiens, UniProt Q6DWJ6).
T1 sequence (Q6DWJ6 1-353): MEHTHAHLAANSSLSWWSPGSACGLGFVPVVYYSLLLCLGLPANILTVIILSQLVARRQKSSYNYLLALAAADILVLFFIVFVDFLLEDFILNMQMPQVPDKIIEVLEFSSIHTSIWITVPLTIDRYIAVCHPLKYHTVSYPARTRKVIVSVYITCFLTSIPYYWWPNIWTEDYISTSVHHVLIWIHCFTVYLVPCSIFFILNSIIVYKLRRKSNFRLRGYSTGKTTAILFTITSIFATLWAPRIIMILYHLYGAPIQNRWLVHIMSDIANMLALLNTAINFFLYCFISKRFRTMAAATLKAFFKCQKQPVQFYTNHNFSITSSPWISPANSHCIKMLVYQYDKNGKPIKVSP
Briefly: Ca2+ mobilization assay, agonist mode, stable GPR139-CHOk1 cell line. The test is classed as cell-based. The conditions noted are these: for Emax: normalized to Lundbeck Cmp 1a, read-out: Emax (%), Ca2+ mobilization. The method in brief:
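Agonist activity of compounds is assessed in stably transfected CHO-K1 cells using the calcium dye Fluo-4 at 37 °C in HEPES-buffered HBSS (pH 7.4). Efficacy is expressed relative to the reference agonist Lundbeck Cmp 1a, set as 100%.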

The mark [1] stands for this setting: Supplementary Table 7, enantiopure compounds, read-out: pEC50, Ca2+ mobilization (converted).
The mark [2] stands for this setting: log [Compound] M -8.5, individual replicates.
Where [3] appears, read: log [Compound] M -9.0, individual replicates.
The mark [4] stands for this setting: log [Compound] M -12.0, individual replicates.
Setting [5] is: log [compound] M -4.5, individual replicates.
Setting [6] is: log [compound] M -5.0, individual replicates.
Where [7] appears, read: log [compound] M -5.5, individual replicates.
Where [8] appears, read: log [compound] M -6.0, individual replicates.
Setting [9] is: log [compound] M -6.5, individual replicates.
Setting [10] is: log [compound] M -7.0, individual replicates.
[11] abbreviates: log [compound] M -7.5, individual replicates.
The mark [12] stands for this setting: log [compound] M -8.0, individual replicates.

Turning to `Cc1cscc1-c1nc(CC(=O)N[C@H](C)c2ccccc2)no1` [1.1(R)], under setting [1], the EC50 was 316 nM. In addition, the Emax (Supplementary Table 7) amounted to 112 ± 1%. The “Ca2+ signal (% of Cmp 1a)” value under setting [2] is 12 % of Cmp 1a and 7 % of Cmp 1a and 3.33 % of Cmp 1a; the “Ca2+ signal (% of Cmp 1a)” value under setting [3] is 9 % of Cmp 1a and 0.333 % of Cmp 1a and -1.33 % of Cmp 1a; the “Ca2+ signal (% of Cmp 1a)” value under setting [4] is 0 % of Cmp 1a; the “Ca2+ signal (% of Cmp 1a)” value under setting [5] was 101 % of Cmp 1a and 112 % of Cmp 1a and 116 % of Cmp 1a; the “Ca2+ signal (% of Cmp 1a)” value under setting [6] is 100 % of Cmp 1a and 104 % of Cmp 1a and 97 % of Cmp 1a; the “Ca2+ signal (% of Cmp 1a)” value under setting [7] is 97 % of Cmp 1a and 88 % of Cmp 1a and 90 % of Cmp 1a. Further, the “Ca2+ signal (% of Cmp 1a)” value runs as follows: under setting [8], 74 % of Cmp 1a and 79 % of Cmp 1a and 77 % of Cmp 1a; under setting [9], 50 % of Cmp 1a and 51 % of Cmp 1a and 65 % of Cmp 1a; under setting [10], 32 % of Cmp 1a and 25 % of Cmp 1a and 37 % of Cmp 1a; under setting [11], 15 % of Cmp 1a and 13 % of Cmp 1a and 16 % of Cmp 1a; under setting [12], 9 % of Cmp 1a and 4.67 % of Cmp 1a and 8 % of Cmp 1a.
Consider `Cc1cscc1-c1nc(CC(=O)N[C@@H](C)c2ccccc2)no1` [1.1(S)], for which the EC50 (GPR139-CHOk1, read-out: EC50, Ca2+ mobilization) was determined as 8 nM. Also, the Emax (Supplementary Table 7) came out at 121 ± 11%. The “Ca2+ signal (% of Cmp 1a)” value was 28 % of Cmp 1a and 50 % of Cmp 1a and 51 % of Cmp 1a under setting [2]; 24 % of Cmp 1a and 31 % of Cmp 1a and 22 % of Cmp 1a under setting [3]; 0 % of Cmp 1a under setting [4]; 102 % of Cmp 1a and 114 % of Cmp 1a and 136 % of Cmp 1a under setting [5]; 108 % of Cmp 1a and 117 % of Cmp 1a and 136 % of Cmp 1a under setting [6]; 90 % of Cmp 1a and 125 % of Cmp 1a and 141 % of Cmp 1a under setting [7]. In addition, the “Ca2+ signal (% of Cmp 1a)” value is, setting by setting: under setting [8], 102 % of Cmp 1a and 120 % of Cmp 1a and 136 % of Cmp 1a; under setting [9], 96 % of Cmp 1a and 104 % of Cmp 1a and 131 % of Cmp 1a; under setting [10], 104 % of Cmp 1a and 95 % of Cmp 1a and 127 % of Cmp 1a; under setting [11], 92 % of Cmp 1a and 77 % of Cmp 1a and 113 % of Cmp 1a; under setting [12], 61 % of Cmp 1a and 62 % of Cmp 1a and 73 % of Cmp 1a.
For the compound `C[C@@H](NC(=O)CNC(=O)c1cccc(Cl)c1)c1ccccc1` [JNJ(R), reference compound], the EC50 under setting [1] is 3160 nM. Further, the Emax (Supplementary Table 7) worked out at 99 ± 5%. Besides, the “Ca2+ signal (% of Cmp 1a)” value is, setting by setting: under setting [2], -4.33 % of Cmp 1a and 7 % of Cmp 1a and -3.33 % of Cmp 1a; under setting [3], -1.33 % of Cmp 1a and 6 % of Cmp 1a and -7 % of Cmp 1a; under setting [4], 0 % of Cmp 1a; under setting [5], 84 % of Cmp 1a and 100 % of Cmp 1a and 82 % of Cmp 1a; under setting [6], 66 % of Cmp 1a and 88 % of Cmp 1a and 60 % of Cmp 1a; under setting [7], 49 % of Cmp 1a and 72 % of Cmp 1a and 33 % of Cmp 1a. Moreover, the “Ca2+ signal (% of Cmp 1a)” value under setting [8] is 28 % of Cmp 1a and 43 % of Cmp 1a and 16 % of Cmp 1a; the “Ca2+ signal (% of Cmp 1a)” value under setting [9] is 13 % of Cmp 1a and 14 % of Cmp 1a and -2 % of Cmp 1a; the “Ca2+ signal (% of Cmp 1a)” value under setting [10] was 4.33 % of Cmp 1a and 9 % of Cmp 1a and -10 % of Cmp 1a; the “Ca2+ signal (% of Cmp 1a)” value under setting [11] is 11 % of Cmp 1a and 3.67 % of Cmp 1a and -10 % of Cmp 1a; the “Ca2+ signal (% of Cmp 1a)” value under setting [12] was 5.33 % of Cmp 1a (2×) and -13 % of Cmp 1a.
Consider `CC(NC(=O)CNC(=O)c1cccc(Cl)c1)c1ccccc1` (stereo not shown) [JNJ-63533054, reference compound], for which the Emax was found to be 100 ± 2% (Supplementary Table 4) and 119 ± 6% (Supplementary Table 7). Further, the EC50 was 63.1 nM (Supplementary Table 4, read-out: pEC50, Ca2+ mobilization (converted)) and 15.8 nM under setting [1]. The “Ca2+ signal (% of Cmp 1a)” value is 100 % of Cmp 1a (log [Compound] M -5.5, replicate experiments); 91 % of Cmp 1a and 96 % of Cmp 1a and 95 % of Cmp 1a (log [Compound] M -6.0, replicate experiments); 91 % of Cmp 1a and 78 % of Cmp 1a and 84 % of Cmp 1a (log [Compound] M -6.5, replicate experiments); 68 % of Cmp 1a and 62 % of Cmp 1a and 69 % of Cmp 1a (log [Compound] M -7.0, replicate experiments); 36 % of Cmp 1a and 26 % of Cmp 1a and 32 % of Cmp 1a (log [Compound] M -7.5, replicate experiments); 25 % of Cmp 1a and 21 % of Cmp 1a and 8 % of Cmp 1a (log [Compound] M -8.0, replicate experiments). Moreover, the “Ca2+ signal (% of Cmp 1a)” value runs as follows: (log [Compound] M -8.5, individual replicates, listed as JNJ (S)) 33 % of Cmp 1a and 17 % of Cmp 1a and 31 % of Cmp 1a; (log [Compound] M -8.5, replicate experiments) 11 % of Cmp 1a and 1.8 % of Cmp 1a and -4.36 % of Cmp 1a; (log [Compound] M -9.0, individual replicates, listed as JNJ (S)) 12 % of Cmp 1a and 6 % of Cmp 1a and 21 % of Cmp 1a; (log [Compound] M -9.0, replicate experiments) 0 % of Cmp 1a; under setting [4], 0 % of Cmp 1a; (log [Compound] M = -5.5, individual replicate columns) 100 % of Cmp 1a. The “Ca2+ signal (% of Cmp 1a)” value is 96 % of Cmp 1a and 95 % of Cmp 1a and 91 % of Cmp 1a (log [Compound] M = -6.0, individual replicate columns); 78 % of Cmp 1a and 84 % of Cmp 1a and 91 % of Cmp 1a (log [Compound] M = -6.5, individual replicate columns); 62 % of Cmp 1a and 69 % of Cmp 1a and 68 % of Cmp 1a (log [Compound] M = -7.0, individual replicate columns); 26 % of Cmp 1a and 32 % of Cmp 1a and 36 % of Cmp 1a (log [Compound] M = -7.5, individual replicate columns); 21 % of Cmp 1a and 8 % of Cmp 1a and 25 % of Cmp 1a (log [Compound] M = -8.0, individual replicate columns); 1.8 % of Cmp 1a and -4.36 % of Cmp 1a and 11 % of Cmp 1a (log [Compound] M = -8.5, individual replicate columns). For the same compound, the “Ca2+ signal (% of Cmp 1a)” value reads like this: (log [Compound] M = -9.0, individual replicate columns) 0 % of Cmp 1a; (log [compound] M -4.5, individual replicates, listed as JNJ (S)) 119 % of Cmp 1a and 120 % of Cmp 1a and 108 % of Cmp 1a; (log [compound] M -5.0, individual replicates, listed as JNJ (S)) 106 % of Cmp 1a and 110 % of Cmp 1a and 122 % of Cmp 1a; (log [compound] M -5.5, individual replicates, listed as JNJ (S)) 100 % of Cmp 1a and 103 % of Cmp 1a and 143 % of Cmp 1a; (log [compound] M -6.0, individual replicates, listed as JNJ (S)) 91 % of Cmp 1a and 107 % of Cmp 1a and 141 % of Cmp 1a; (log [compound] M -6.5, individual replicates, listed as JNJ (S)) 93 % of Cmp 1a and 118 % of Cmp 1a and 122 % of Cmp 1a. Also, the “Ca2+ signal (% of Cmp 1a)” value by setting is: (log [compound] M -7.0, individual replicates, listed as JNJ (S)) 76 % of Cmp 1a and 120 % of Cmp 1a and 95 % of Cmp 1a; (log [compound] M -7.5, individual replicates, listed as JNJ (S)) 65 % of Cmp 1a and 92 % of Cmp 1a and 71 % of Cmp 1a; (log [compound] M -8.0, individual replicates, listed as JNJ (S)) 46 % of Cmp 1a and 57 % of Cmp 1a and 54 % of Cmp 1a.

For orientation: Emax means the size of the effect at its maximum, as opposed to the concentration needed.

Values taken from publication PMC12775434, “Ultra-large virtual screening unveils potent agonists of the neuromodulatory orphan receptor GPR139” (Nature Communications, 2025).
